Literature values in patent publication US20120058950A1, “DETECTION OF NEUROPEPTIDES ASSOCIATED WITH PELVIC PAIN DISORDERS AND USES THEREOF” (University of Vermont and State Agricultural College, priority 2003, published 2012).
No end group written: not given here.

Pituitary Adenylate Cyclase Activating Peptide (HSDGIFTDSYSRYRKQMAVKKYLAAVLGKRYKQRVKNK; ends and bridges not checked; UniProt P18509 132-169, looked up) [PACAP]
bladder activity in vitro (contraction of detrusor, alteration of electrically or cholinergically elicited contractions) (detrusor): no bladder activity in vitro
activity when infused near the bladder (bladder): has activity when infused near the bladder
